Reference: ChEMBL document CHEMBL1201862, “PubChem BioAssay data set” (2004)
Active and inactive are the calls of the source.

Assays:
[1] = biological target: Heat shock protein HSP 90-alpha (Homo sapiens, UniProt P07900); type: functional, organism-based
[2] = biological target: T1, Endoribonuclease toxin MazF (Escherichia coli K-12, UniProt P0AE70); assay: MazF toxin RNase activators, dose response, biochemical, fluorescence, single-stranded RNA substrate, uHTS hits (AID 588481); type: functional
T1 sequence (P0AE70 whole entry): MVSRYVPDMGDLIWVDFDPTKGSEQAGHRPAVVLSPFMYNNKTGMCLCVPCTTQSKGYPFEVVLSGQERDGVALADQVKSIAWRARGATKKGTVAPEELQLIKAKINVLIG

[3] = biological target: T1, Endoribonuclease toxin MazF; assay: fluorescent RNA oligo signal without MazF, dose response, counter-screen for MazEF activator project, biochemical, fluorescence, single-stranded RNase substrate (AID 588502); type: functional
cells [4] = type: functional, cell-based
[5] = microbe, parasite or virus in culture; type: functional; conditions: Mycobacterium tuberculosis
cells [6] = type: functional, cell-based; remark: listed apart in the source
[7] = THP-1 cell cytotoxicity, dose response, cytotoxicity control for non-replicating M. tuberculosis project (AID 489025); type: functional
[8] = Vero E6 cell cytotoxicity, dose response, cytotoxicity control for non-replicating M. tuberculosis project, secondary assay (AID 492998); type: functional, VeroE6; conditions: Vero C1008
cells [9] = type: functional
[10] = biological target: T2, Long-chain-fatty-acid--AMP ligase FadD28 (Mycobacterium tuberculosis, UniProt P9WQ59); assay: Fluorescence polarization aasay to screen for inhibitors that compete for the binding of FadD28 to a bisubstrate Measured in Biochemical System Using Plate Reader - 2147-01_Inhibitor_Dose_CherryPick_Activity.; type: functional, Mycobacterium tuberculosis H37Rv
T2 sequence (P9WQ59 whole entry): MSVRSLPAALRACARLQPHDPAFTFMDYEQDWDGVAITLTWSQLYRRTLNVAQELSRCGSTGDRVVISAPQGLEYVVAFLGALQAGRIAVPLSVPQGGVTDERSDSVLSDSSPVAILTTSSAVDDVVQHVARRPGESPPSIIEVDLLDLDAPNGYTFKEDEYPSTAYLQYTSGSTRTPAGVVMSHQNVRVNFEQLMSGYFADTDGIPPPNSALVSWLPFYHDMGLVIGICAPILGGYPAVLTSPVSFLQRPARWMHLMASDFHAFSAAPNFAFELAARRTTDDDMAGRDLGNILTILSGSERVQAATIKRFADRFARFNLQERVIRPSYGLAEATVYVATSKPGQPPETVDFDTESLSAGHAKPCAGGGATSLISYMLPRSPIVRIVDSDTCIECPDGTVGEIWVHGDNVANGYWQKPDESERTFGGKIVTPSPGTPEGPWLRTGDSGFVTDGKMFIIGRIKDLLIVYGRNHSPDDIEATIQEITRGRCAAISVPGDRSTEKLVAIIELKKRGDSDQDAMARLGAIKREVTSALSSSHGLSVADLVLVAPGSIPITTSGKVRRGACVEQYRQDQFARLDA

Cytochrome P450 3A4 = Cytochrome P450 3A4 (Homo sapiens, UniProt P08684); conditions: Potency;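 note: confirmatory qHTS run detecting inhibitors and substrates of CYP3A4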
Sequence of Cytochrome P450 3A4 (P08684 whole entry): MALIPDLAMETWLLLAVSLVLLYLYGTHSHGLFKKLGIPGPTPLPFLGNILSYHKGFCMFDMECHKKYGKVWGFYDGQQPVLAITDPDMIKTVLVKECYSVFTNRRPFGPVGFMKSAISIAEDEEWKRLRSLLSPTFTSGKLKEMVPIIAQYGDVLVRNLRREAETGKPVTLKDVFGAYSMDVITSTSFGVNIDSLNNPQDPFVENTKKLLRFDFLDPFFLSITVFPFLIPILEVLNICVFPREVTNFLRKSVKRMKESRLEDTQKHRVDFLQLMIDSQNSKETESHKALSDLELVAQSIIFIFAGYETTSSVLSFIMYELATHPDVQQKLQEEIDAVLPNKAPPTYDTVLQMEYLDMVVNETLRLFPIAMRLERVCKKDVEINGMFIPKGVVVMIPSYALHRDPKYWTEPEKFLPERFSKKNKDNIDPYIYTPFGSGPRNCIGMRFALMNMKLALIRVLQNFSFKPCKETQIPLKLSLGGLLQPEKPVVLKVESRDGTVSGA

[11] = biological target: T3, Polyadenylate-binding protein 1 (Homo sapiens, UniProt P11940); assay: PABP1 MLLE–PAM2 interaction inhibitors, dose response, miRNA deadenylation inhibitor project, biochemical, fluorescence polarization, Cy5-PAM2 peptide, secondary (AID 602260); type: functional; conditions: read-out: IC50_Mean
T3 sequence (P11940 whole entry): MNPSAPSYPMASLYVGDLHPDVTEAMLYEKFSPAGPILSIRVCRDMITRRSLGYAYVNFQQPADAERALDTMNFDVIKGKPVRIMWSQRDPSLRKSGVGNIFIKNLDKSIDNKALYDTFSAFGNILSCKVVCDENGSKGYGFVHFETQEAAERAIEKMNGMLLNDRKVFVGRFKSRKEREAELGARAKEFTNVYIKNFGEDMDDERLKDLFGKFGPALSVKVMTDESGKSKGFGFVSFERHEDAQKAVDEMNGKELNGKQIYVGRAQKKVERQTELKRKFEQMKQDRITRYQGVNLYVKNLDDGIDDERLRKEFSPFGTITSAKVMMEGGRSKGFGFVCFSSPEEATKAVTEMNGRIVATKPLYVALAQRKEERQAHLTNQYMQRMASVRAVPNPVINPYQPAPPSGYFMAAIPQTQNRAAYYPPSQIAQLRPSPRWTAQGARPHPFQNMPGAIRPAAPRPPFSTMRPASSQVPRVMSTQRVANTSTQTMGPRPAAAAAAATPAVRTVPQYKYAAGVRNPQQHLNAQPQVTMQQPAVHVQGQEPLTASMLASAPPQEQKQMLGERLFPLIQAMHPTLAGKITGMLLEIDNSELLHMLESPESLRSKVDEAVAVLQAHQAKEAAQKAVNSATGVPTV

[12] = biological target: T3, Polyadenylate-binding protein 1; assay: PABP1 MLLE–PAM2 binding inhibitor potency, dose response, biochemical, fluorescence polarization, FITC-PAM2 peptide (AID 602259); type: functional; conditions: read-out: IC50_Mean
[13] = inhibitors of firefly luciferase expression or activity, dose response, H4 neuroglioma cells, luminescence (AID 1990); type: functional, cell-based
[14] = Luminescence Cell-Based Dose Response HTS to Identify Inhibitors of 5'UTR Stem-Loop Driven Prion Protein mRNA Translation in H4 Neuroglioblastoma Cells. [Related pubchem assays: 1827 (Project Summary), 1813 (Primary HTS)]; type: functional
[15] = inhibitors of SNCA 5'UTR-driven reporter translation, confirmation, H4 neuroglioma cells, luminescence (AID 1988); type: functional, cell-based
[16] = inhibitors of intracellular T. cruzi replication, confirmation, NIH3T3 host cells, beta-gal luminescence (AID 2044); type: functional, cell-based;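 note: intracellular parasites grown in NIH/3T3 mouse fibroblasts as host cells; luminescent beta-galactosidase reporter signal from transgenic T. cruzi replicating inside host cells; inhibitors lower the luminescence signal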
[17] = cytotoxicity toward NIH3T3 fibroblasts, dose response, counter-screen, cell-based, ATP luminescence, mouse fibroblasts (AID 2010); type: functional;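 note: cells exposed to compound for about 90 hours before reading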
[18] = cytotoxicity in HEK-293T cells, dose response, cytotoxicity control for TCR NF-kB inhibitor project, luminescence, T-cell screen hits (AID 489026); type: functional, cell-based;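 note: cells exposed to compound about 14 hours before the viability readout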
[19] = biological target: T4, Replicative DNA helicase DnaB (Mycobacterium tuberculosis, UniProt P9WMR3); assay: DnaB intein splicing inhibitors, dose response, biochemical, cell-free fluorescence (AID 449749); type: functional
T4 sequence (P9WMR3 whole entry): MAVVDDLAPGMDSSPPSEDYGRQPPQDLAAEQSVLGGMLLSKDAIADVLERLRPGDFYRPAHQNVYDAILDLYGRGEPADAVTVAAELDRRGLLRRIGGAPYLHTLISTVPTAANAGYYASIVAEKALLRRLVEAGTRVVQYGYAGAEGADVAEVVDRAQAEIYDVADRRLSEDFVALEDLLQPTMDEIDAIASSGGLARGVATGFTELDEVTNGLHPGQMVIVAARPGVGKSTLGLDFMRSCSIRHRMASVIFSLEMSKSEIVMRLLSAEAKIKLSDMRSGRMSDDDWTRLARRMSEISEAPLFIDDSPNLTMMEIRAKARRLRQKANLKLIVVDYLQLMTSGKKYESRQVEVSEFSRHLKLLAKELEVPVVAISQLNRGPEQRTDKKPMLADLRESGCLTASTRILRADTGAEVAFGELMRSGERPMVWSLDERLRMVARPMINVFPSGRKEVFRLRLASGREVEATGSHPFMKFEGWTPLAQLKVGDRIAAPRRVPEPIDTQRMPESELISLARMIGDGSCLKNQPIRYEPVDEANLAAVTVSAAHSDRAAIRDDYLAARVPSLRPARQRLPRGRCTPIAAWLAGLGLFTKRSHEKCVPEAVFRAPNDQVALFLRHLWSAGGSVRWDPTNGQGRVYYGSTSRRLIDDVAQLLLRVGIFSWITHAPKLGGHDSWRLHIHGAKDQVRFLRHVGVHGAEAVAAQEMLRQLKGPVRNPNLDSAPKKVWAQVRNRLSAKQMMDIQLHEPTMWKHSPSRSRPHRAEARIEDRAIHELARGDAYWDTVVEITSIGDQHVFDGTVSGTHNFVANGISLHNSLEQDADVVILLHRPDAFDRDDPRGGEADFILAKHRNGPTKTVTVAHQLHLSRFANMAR

Protein RecA = biological target: T5, Protein RecA (Mycobacterium tuberculosis, UniProt P9WHJ3); assay: Fluorescence Cell-Free Homogeneous Dose Retest to Identify Inhibitors of RecA-Intein Splicing Activity. [Related pubchem assays (depositor defined):AID2097, AID2223, AID489010, AID492950]; type: functional
T5 sequence (P9WHJ3 whole entry): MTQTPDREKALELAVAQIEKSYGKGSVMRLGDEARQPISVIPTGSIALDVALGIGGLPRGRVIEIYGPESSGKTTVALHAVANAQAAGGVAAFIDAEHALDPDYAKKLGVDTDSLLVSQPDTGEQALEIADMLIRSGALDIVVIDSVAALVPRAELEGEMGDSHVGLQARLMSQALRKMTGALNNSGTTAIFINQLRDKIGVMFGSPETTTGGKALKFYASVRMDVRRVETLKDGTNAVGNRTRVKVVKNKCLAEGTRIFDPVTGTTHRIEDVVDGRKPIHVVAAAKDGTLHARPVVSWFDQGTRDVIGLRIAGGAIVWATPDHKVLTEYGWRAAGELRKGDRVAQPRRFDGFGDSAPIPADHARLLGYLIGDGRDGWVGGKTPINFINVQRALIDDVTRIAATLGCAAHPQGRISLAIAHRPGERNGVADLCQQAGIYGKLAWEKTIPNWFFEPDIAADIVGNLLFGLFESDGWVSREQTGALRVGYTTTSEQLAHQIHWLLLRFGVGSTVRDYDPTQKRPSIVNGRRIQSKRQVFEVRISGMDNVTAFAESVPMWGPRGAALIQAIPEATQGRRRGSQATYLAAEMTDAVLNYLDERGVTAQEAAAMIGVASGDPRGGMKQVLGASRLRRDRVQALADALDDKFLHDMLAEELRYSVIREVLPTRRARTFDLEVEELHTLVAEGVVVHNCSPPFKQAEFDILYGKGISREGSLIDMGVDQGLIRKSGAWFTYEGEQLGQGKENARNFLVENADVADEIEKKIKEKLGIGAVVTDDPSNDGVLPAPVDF

H9c2 = assay: cells; type: functional, cell-based; conditions: Rattus norvegicus, H9c2, Myocardium;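 note: confirmatory concentration-response retest of ultra-high-throughput screening hits for modulation of myocardial damage; cell death induced by hydrogen peroxide oxidative stress; compound pretreatment for 60 min then peroxide exposure for 2 h; potency is for protecting the cells against peroxide damage rather than for killing them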

With `O=c1c(-c2ccccc2)c(-c2ccccc2)oc2cc(O)cc(O)c12` the AC50 [1] was 7.78 µM (active).
With `Cc1sc(NC(=O)COc2cccc(-n3cnnn3)c2)c(C#N)c1C` the EC50 [2] was > 99 µM (inactive) and the EC50 [3] was > 99 µM (inactive).
For `Cc1cc(C)nc(Sc2ncnc(N)c2[N+](=O)[O-])n1`, the EC50 (cells [4]) was > 350 µM (not active), the CC50 [5] was 26.3 µM (active) and the EC50 (cells [6]) was > 350 µM (not active). The CC50 [7] was 23.8 µM (active), the CC50 [8] was 17.8 µM (active) and the IC50 (cells [9]) was 11.7 µM (active).
In the case of `COc1ccc(NC(=O)CNc2ccccc2N2CCCC2=O)cc1S(=O)(=O)N1CCOCC1`, the AC50 [10] is reported as 34.1 µM (active).
In the case of `COC(=O)c1cccc(C23CC4(C2)[C@H](CN(Cc2ccc(-c5ccccc5)cc2)[C@@H]4c2ccccc2)C3c2ccc(C(F)(F)F)cc2)c1` (stereo partly drawn), the AC50 (Cytochrome P450 3A4) is reported as 20 µM (inconclusive).
For `COc1ccc2nc3cc(Cl)ccc3c(C#N)c2c1`, the EC50 [2] was > 99 µM (inactive), the EC50 [3] was > 99 µM (inactive) and the IC50 [11] was > 66 µM (inactive). The IC50 [12] was > 66 µM (inactive).
For `COc1cc(OC)cc(N2C(=O)CC(N3CCC(C(=O)N4CCCCC4)CC3)C2=O)c1` (stereo not drawn), the AC50 [1] was 8.16 µM (active).
For `CC1CN(c2ccc([N+](=O)[O-])c(NCCOc3ccc(Cl)cc3)c2)CC(C)N1` (stereo not drawn), the EC50 [13] was > 120 µM (not active), the EC50 [14] was 13.6 µM (active) and the EC50 [15] was 9.59 µM (active). The CC50 [5] was 11.7 µM (active).
In the case of `CCOC(=O)CSc1nc2cc(C)ccc2cc1C#N`, the EC50 [2] is reported as > 99 µM (inactive) and the EC50 [3] is reported as 26.8 µM (inactive).
With `Nc1c(C(=O)c2ccc(Cl)cc2)sc2nc3c(cc12)CCC3` the EC50 [2] was > 99 µM (inactive) and the EC50 [3] was > 99 µM (inactive).
For `Cc1cccc(NC(=O)c2ccc([N+](=O)[O-])s2)n1`, the EC50 [16] was 0.325 µM (active), the EC50 [17] was > 60 µM (not active) and the CC50 [7] was 29.9 µM (active). The CC50 [8] was 19.1 µM (active) and the IC50 (cells [9]) was 11.8 µM (active).
With `CCCCC(CC)COP(=O)(OCC(CC)CCCC)OCC(CC)CCCC` (stereo not drawn) the AC50 (Cytochrome P450 3A4) was 15.8 µM (inconclusive).
For `C=CCOC(=O)C(C(C)=O)C(NC(=O)OC)c1ccco1` (stereo not drawn), the AC50 (Cytochrome P450 3A4) was 5.01 µM (inconclusive).
For `COC(=O)[C@@H]1C[C@@H]2CC[C@@H](O)C[C@@H]2N1Cc1ccc(C)s1`, the AC50 (Cytochrome P450 3A4) was 25.1 µM (inconclusive).
In the case of `Nc1ncnc2c1ncn2[C@@H]1O[C@H](CNCc2ccc(OCc3ccccc3)cc2)[C@@H](O)[C@H]1O`, the AC50 [10] is reported as 64.2 µM (active).
For `COc1cccc(NC(=O)CN(C)C(=O)c2cc3c(s2)CCCCC3)c1`, the AC50 [10] was 84 µM (active).
For `COc1cc(C2c3cc4c(cc3CC3COC(=O)C32)OCO4)cc(OC)c1OC` (stereo not drawn), the IC50 [18] was > 80 µM (inactive).
For `Cc1ccc2c(c1)C(=O)C(=O)N2Cc1ccc(C(F)(F)F)cc1`, the AC50 [1] was 7.94 µM (active).
With `Cc1[nH]n(-c2ccccc2)c(=O)c1C(C[N+](=O)[O-])c1ccccc1Cl` (stereo not drawn) the CC50 [5] was > 40 µM (active), the AC50 [19] was 6.69 µM (active) and the EC50 (Protein RecA) was 5.48 µM (active).
For `Cc1cccc(-n2[nH]c(C)c(/C=N/c3ccc4[nH]c(O)nc4c3)c2=O)c1`, the EC50 [2] was 36 µM (inactive), the IC50 (H9c2) was > 79 µM (inactive) and the EC50 [3] was 65.2 µM (inactive).
With `COC(=O)c1c(C)c2c(c(C)c1O)OC(=O)c1c(C)c(Cl)c(O)c(Cl)c1O2` [LEOIDIN] the AC50 (Cytochrome P450 3A4) was 2.51 µM (inconclusive).
